According to PMC4790425 (Journal of medicinal chemistry, 2015):
Positions count from the first letter of the chain named. Entries after “also recorded” stand apart in the source; their conditions may differ.

What was measured:
wild type rat CCK1R = molecular target: T1, wild type rat CCK1R (Rattus norvegicus, UniProt P30551); assay: Competition binding with 125I-BDZ-1, receptor expressed in COS cells
T1 sequence (P30551 1-444): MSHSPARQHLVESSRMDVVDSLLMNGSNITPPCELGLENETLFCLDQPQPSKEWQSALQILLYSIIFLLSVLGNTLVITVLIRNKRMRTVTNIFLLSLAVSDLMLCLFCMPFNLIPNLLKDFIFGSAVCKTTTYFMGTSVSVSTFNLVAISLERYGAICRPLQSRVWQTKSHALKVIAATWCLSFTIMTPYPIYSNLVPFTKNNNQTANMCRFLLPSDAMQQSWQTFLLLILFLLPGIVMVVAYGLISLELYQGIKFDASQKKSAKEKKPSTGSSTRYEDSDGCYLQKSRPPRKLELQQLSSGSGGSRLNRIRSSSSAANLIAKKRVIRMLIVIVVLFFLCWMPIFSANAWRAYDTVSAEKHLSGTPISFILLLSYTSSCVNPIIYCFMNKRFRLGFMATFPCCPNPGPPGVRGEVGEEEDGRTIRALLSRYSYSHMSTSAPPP

rCCK1R-Ala317,321,325 = molecular target: T2, rCCK1R-Ala317,321,325 (Rattus norvegicus, UniProt P30551, I332A/L340A/V336A); assay type: binding; conditions: non-dimerizing rat mutant
T2 sequence (P30551 1-444 I332A/V336A/L340A): T1 sequence (P30551 1-444) with I332A, V336A, L340A

CCK1R WT [1] = molecular target: T3, CCK1R WT (Homo sapiens, UniProt P32238); assay: Competition binding with 125I-BDZ-1, CHO membranes; conditions: for α (cooperativity constant): 125I-BDZ-1 radioligand, allosteric ternary complex model
T3 sequence (P32238 1-428): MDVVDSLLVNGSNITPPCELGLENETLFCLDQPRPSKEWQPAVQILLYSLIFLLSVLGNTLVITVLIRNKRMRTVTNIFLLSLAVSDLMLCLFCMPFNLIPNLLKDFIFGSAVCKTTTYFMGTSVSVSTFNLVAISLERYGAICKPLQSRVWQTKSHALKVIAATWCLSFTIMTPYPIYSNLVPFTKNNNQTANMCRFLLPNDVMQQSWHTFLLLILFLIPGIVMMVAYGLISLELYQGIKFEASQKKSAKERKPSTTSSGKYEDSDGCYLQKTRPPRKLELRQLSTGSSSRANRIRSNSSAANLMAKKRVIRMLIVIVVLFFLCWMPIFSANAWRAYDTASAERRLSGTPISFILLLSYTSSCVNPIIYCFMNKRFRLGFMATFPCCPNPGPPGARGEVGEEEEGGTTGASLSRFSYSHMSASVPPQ

CCK2R WT [2] = molecular target: T4, CCK2R WT (Homo sapiens, UniProt P32239); assay: Intracellular calcium response, CHO-CCK2R cells; assay type: cell-based
T4 sequence (P32239 1-447): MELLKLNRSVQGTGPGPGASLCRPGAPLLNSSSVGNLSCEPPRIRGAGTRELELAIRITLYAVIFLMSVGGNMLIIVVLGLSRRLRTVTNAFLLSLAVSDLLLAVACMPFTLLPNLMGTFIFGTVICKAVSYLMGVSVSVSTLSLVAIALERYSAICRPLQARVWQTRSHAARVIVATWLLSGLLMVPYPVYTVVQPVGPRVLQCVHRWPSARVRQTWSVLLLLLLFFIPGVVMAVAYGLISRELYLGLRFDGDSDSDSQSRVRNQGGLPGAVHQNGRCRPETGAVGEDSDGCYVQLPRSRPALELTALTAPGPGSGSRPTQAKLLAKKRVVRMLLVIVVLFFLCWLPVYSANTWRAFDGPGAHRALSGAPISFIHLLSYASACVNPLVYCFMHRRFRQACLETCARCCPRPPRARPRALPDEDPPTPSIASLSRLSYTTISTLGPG

CCK1R WT [3] = molecular target: T3, CCK1R WT; assay: Competition binding with 125I-CCK, CHO membranes; conditions: 125I-CCK radioligand; allosteric ternary complex model
CCK1R WT [4] = molecular target: T3, CCK1R WT; conditions: compared with CCK at the CCK1R
CCK2R WT [5] = molecular target: T4, CCK2R WT; assay: Competition binding with 125I-CCK, CHO membranes; conditions: for α (cooperativity constant): 125I-CCK radioligand, allosteric ternary complex model; for inhibition of saturable 125I-CCK binding: maximal inhibition at CCK2R
CCK2R WT [6] = molecular target: T4, CCK2R WT; assay: Competition binding with 125I-BDZ-2, CHO membranes; conditions: 125I-BDZ-2 radioligand; allosteric ternary complex model

α (cooperativity constant) (CCK1R WT [1])	α (cooperativity constant) (CCK1R WT [3])	α (cooperativity constant) (CCK2R WT [5])	inhibition of saturable 125I-CCK binding (CCK2R WT [5])	α (cooperativity constant) (CCK2R WT [6])	SMILES	pKi, BDZ-1 binding affinity (wild type rat CCK1R)	pKi, BDZ-1 binding affinity (rCCK1R-Ala317,321,325)	pKi, BDZ-1 binding affinity (CCK1R WT [1]; wild type human CCK1R)	biological (agonist) response at the CCK2R (CCK2R WT [2])	maximal intracellular calcium response (CCK1R WT [4])
–	–	–	–	–	CN1C(=O)[C@@H](NC(=O)Nc2cccc(I)c2)N=C(c2ccccc2)c2ccccc21 [BDZ-1, (S)-1-(3-iodophenyl)-3-(1-methyl-2-oxo-5-phenyl-2,3-dihydro-1H-enzo[e][1,4]diazepin-3-yl)urea]	9.55 ± 0.25	9.66 ± 0.09	8.38 ± 0.16	–	–
0.54 ± 0.06	~0.00	0.32 ± 0.01	approximately 60%	0.47 ± 0.06	CC(C)N(Cc1ccccc1)C(=O)CN1C(=O)[C@@H](Cc2c[nH]c3ccccc23)c2nnc(-c3ccccc3)n2-c2ccccc21 [CE-326597, N-benzyl-2-[(4S)-4-(1H-indol-3-ylmethyl)-5-oxo-1-phenyl-4,5-dihydro-6H-[1,2,4]triazolo[4,3-a][1,5]benzodiazepin-6-yl]-N-isopropylacetamide]	–	–	–	weak partial agonist; also recorded: very weak partial agonist	not statistically different from those elicited by CCK
0.65 ± 0.08	~0.0	0.32 ± 0.07	approximately 60%	0.60 ± 0.04	Cc1cc(C)cc(C[C@H]2CCCCN2C(=O)CN2C(=O)[C@@H](Cc3n[nH]c4ccccc34)c3nnc(-c4ccccc4)n3-c3ccccc32)c1 [PF-04756956, (4S)-6-{2-[(2R)-2-(3,5-dimethylbenzyl)piperidin-1-yl]-2-oxoethyl}-4-(1H-indazol-3-ylmethyl)-1-phenyl-4H-[1,2,4]triazolo[4,3-a][1,5]benzodiazepin-5(6H)-one]	–	–	–	no agonist activity at all; also recorded: no biological response	not statistically different from those elicited by CCK
